Results taken from patent US20220296627A1, “Cytidine Derivatives and Methods of Forming Cytidine Derivatives” (Aenorasis Commercial Company of Pharmaceutical and Medical …, priority 2019, published 2022).
pIC50: −log10 of the molar value.

What was measured:
Type in all cases: cell-based
[1] = test system: A549/WT wild type human lung adenocarcinoma cell line; test: Cell growth assay (SRB) in A549/WT; conditions: for Ratio of IC50 in the presence of dipyridamole / IC50 in the absence of dipyridamole / Ratio of IC50 in the presence of, compared to in the absence of, dipyridamole: A549/WT; for Ratio of IC50 in the presence of dipyridamole / IC50 in the absence of dipyridamole: 4-N-acyl and 4-N-phosphoryl derivatives (Table 5); for pIC50: Homo sapiens, A549, A549/WT; for Ratio of IC50 in the presence of, compared to in the absence of, dipyridamole: acetylated 4-N-acyl derivatives (Table 7)
Procedure: (§1) Biological activities of the Gemcitabine derivative (which may be referred to as analogues) described above were evaluated with two assays: • 1. Cell growth assay using the SRB assay in cell lines A549/WT, SW1573/WT, PANC-01 and BXPC-3. • 2. MTT assay in human bladder cancer cell line T-24
(§2) The following cell lines were tested: • A549/WT —wild type human lung adenocarcinoma cell line (1) • SW1573/WT —wild type non-small lung human cell line (2), • PANC-01—human pancreatic cancer cell line (3) • BXPC-3 -epithelial human pancreatic adenocarcinoma cells (4).
(§3) Dipyridamole inhibits adenosine uptake by erythrocytes platelets and endothelial cells in vitro and in vivo. Thus, the present inventors recruited dipyridamole as an inhibitor of the nucleoside transporters of the tumour cells to observe the behaviour of the presently described Gemcitabine derivatives.
(§4) From the IC50 of each compound in the presence of dipyridamole, by dividing it with the IC50 of each compound in the absence of dipyridamole, the present inventors calculated a ratio that compared the efficacy of the analogous presence of dipyridamole.
(§5) Ratio=IC50 in the presence of dipyridamole/IC50 in the absence of dipyridamole • FIG. 10. Ratio of IC50 of 4-N-acyl and 4-N-phosphoryl derivatives in the presence of, compared to in the absence of, dipyridamole, in four cell lines

[2] = test system: SW1573/WT wild type non-small lung human cell line; test: Cell growth assay (SRB) in SW1573/WT; conditions: for pIC50: Homo sapiens, SW1573, SW 1573/WT; for Ratio of IC50 in the presence of dipyridamole / IC50 in the absence of dipyridamole / Ratio of IC50 in the presence of, compared to in the absence of, dipyridamole: SW 1573/WT; for Ratio of IC50 in the presence of dipyridamole / IC50 in the absence of dipyridamole: 4-N-acyl and 4-N-phosphoryl derivatives (Table 5); for Ratio of IC50 in the presence of, compared to in the absence of, dipyridamole: acetylated 4-N-acyl derivatives (Table 7)
Procedure: as §1, §2, §3, §4, §5

[3] = test system: PANC-01 human pancreatic cancer cell line; test: Cell growth assay (SRB) in PANC-01; conditions: for Ratio of IC50 in the presence of dipyridamole / IC50 in the absence of dipyridamole: 4-N-acyl and 4-N-phosphoryl derivatives (Table 5); for pIC50: Homo sapiens, Pancreatic cancer cell; for Ratio of IC50 in the presence of, compared to in the absence of, dipyridamole: acetylated 4-N-acyl derivatives (Table 7)
Procedure: as §1, §2, §3, §4, §5

[4] = test system: BXPC-3 epithelial human pancreatic adenocarcinoma cells; test: Cell growth assay (SRB) in BXPC-3; conditions: for Ratio of IC50 in the presence of dipyridamole / IC50 in the absence of dipyridamole / Ratio of IC50 in the presence of, compared to in the absence of, dipyridamole: BXPC-3; for Ratio of IC50 in the presence of dipyridamole / IC50 in the absence of dipyridamole: 4-N-acyl and 4-N-phosphoryl derivatives (Table 5); for pIC50: Homo sapiens, BXPC-3, BXPC-3; for Ratio of IC50 in the presence of, compared to in the absence of, dipyridamole: acetylated 4-N-acyl derivatives (Table 7)
Procedure: as §1, §2, §3, §4, §5

[5] = test system: human bladder cancer cell line T-24; test: MTT assay, cell viability of T-24 cells; conditions: 100 μM; for inhibition of cell growth (cell viability, MTT), order of potency: 5000 cells/well
Procedure: as §1
The cell viability of T-24 bladder cancer cells upon treatment with the Gemcitabine derivatives was evaluated using the MTT assay. T24 cancer cells were cultured in DMEM (Gibco) high glucose supplemented with 10% FBS and 1% Penicillin/Streptomycin (100 U/mL Penicillin and 100 μg/mL Streptomycin), at 37 ° C. in humidified atmosphere of 5% CO2.
For the MTT assay 5000 or 10000 cells were seeded in triplicates in 96-well plates. Stock solutions of each derivative were prepared in DMSO/EtOH (1:1 v/v). Then, the cells were treated and incubated with 100 μM of each compound for 24 or 48 hours. After the completion of the incubation time, 10 μL of MTT solution (5 mg/ml in PBS buffer) were added in each well and incubated for 4 hrs. Finally, to stop the reaction, the supernatant from each well was removed and 100 μL of stop mix solution (20% SDS in 50% dimethyl formamide in water) were added. The plate remained in darkness for 2 h and the absorbance was measured at 540 nm via a microplate ELISA reader (Awareness Technology Inc.) with a reference at 630 nm. The % cell viability for each compound was calculated relatively to the absorbance of the untreated cells (control).
Two sets of experiments were performed at concentrations of 100 μM, and the absorption of formazan was measured after 24 and 48 hours.
Another experiment was conducted with the MTT assay where the compounds were incubated for 48 hours at […] derivative concentration where the number of cells seeded per well was 10000.

[6] = 4-N-acyl and 4-N-phosphoryl derivatives (Table 4)
[7] = acetylated 4-N-acyl derivatives (Table 6)

Row | SMILES | Ratio of IC50 in the presence of dipyridamole / IC50 in the absence of dipyridamole [1] | pIC50 [1, 6] | pIC50 [2, 6] | Ratio of IC50 in the presence of dipyridamole / IC50 in the absence of dipyridamole [2] | Ratio of IC50 in the presence of dipyridamole / IC50 in the absence of dipyridamole [3] | pIC50 [3, 6] | Ratio of IC50 in the presence of dipyridamole / IC50 in the absence of dipyridamole [4] | pIC50 [4, 6] | inhibition of cell growth (cell viability, MTT), order of potency ([5]; 24 hours) | inhibition of cell growth (cell viability, MTT), order of potency ([5]; 48 hours) | cell viability (MTT), most potent derivatives ([5]; 10000 cells/well, 48 hours) | Ratio of IC50 in the presence of, compared to in the absence of, dipyridamole [1] | pIC50 [1, 7] | pIC50 [2, 7] | Ratio of IC50 in the presence of, compared to in the absence of, dipyridamole [2] | pIC50 [3, 7] | Ratio of IC50 in the presence of, compared to in the absence of, dipyridamole [3] | Ratio of IC50 in the presence of, compared to in the absence of, dipyridamole [4] | pIC50 [4, 7]
1 | CCCCOC(=O)Nc1ccn(C2OC(CO)C(O)C2(F)F)c(=O)n1 (stereo not drawn) [Derivative 2] | 3.4 | 6.15 | 6.34 | 8 | 2.4 | 5.61 | 3.7 | 6.47 |  |  |  |  |  |  |  |  |  |  | 
2 | O=C(Nc1ccn(C2OC(CO)C(O)C2(F)F)c(=O)n1)OCCCl (stereo not drawn) [Derivative 3A] | 10.5 | 6.02 | 6.21 | 40.9 | 0.6 | 5.52 | 27 | 6.30 |  |  |  |  |  |  |  |  |  |  | 
3 | O=C1OCCN1c1ccn(C2OC(CO)C(O)C2(F)F)c(=O)n1 (stereo not drawn) [Derivative 3B] | 18.1 | 6.80 | 7.00 | 25 | 23 | 6.42 | 24 | 7.00 |  |  |  |  |  |  |  |  |  |  | 
4 | O=C(Nc1ccn(C2OC(CO)C(O)C2(F)F)c(=O)n1)OCCl (stereo not drawn) [Derivative 4] | 6.3 | 7.00 | 7.00 | 10 | 22 | 7.35 | 4.5 | 7.00 | greater potency than the parent drug Gemcitabine | 17>4>11 and then Gemcitabine | most potent |  |  |  |  |  |  |  | 
5 | C#CCOC(=O)Nc1ccn(C2OC(CO)C(O)C2(F)F)c(=O)n1 (stereo not drawn) [Derivative 5] | 11.1 | 6.35 | 6.42 | 13 | 2.7 | 5.73 | 23 | 6.62 |  |  |  |  |  |  |  |  |  |  | 
6 | CC(COC(=O)Nc1ccn(C2OC(CO)C(O)C2(F)F)c(=O)n1)c1ccccc1[N+](=O)[O-] (stereo not drawn) [Derivative 6] | 11 | 6.30 | 6.37 | 11 | 4 | 5.80 | 13.1 | 6.47 |  |  |  |  |  |  |  |  |  |  | 
7 | CC(C)COC(=O)Nc1ccn(C2OC(CO)C(O)C2(F)F)c(=O)n1 (stereo not drawn) [Derivative 8] | 10.4 | 6.62 | 6.77 | 14 | 4.2 | 6.32 | 25 | 6.82 |  |  |  |  |  |  |  |  |  |  | 
8 | CCOC(=O)Nc1ccn(C2OC(COC(C)=O)C(OC(C)=O)C2(F)F)c(=O)n1 (stereo not drawn) [Derivative 13] |  |  |  |  |  |  |  |  |  |  |  | 2.85 | 5.20 | 5.17 | 3.6 | 4.60 | 1 | 2.8 | 5.30
9 | CC(=O)OCC1OC(n2ccc(NC(=O)OCCCl)nc2=O)C(F)(F)C1OC(C)=O (stereo not drawn) [Derivative 15] |  |  |  |  |  |  |  |  |  |  |  | 3.7 | 5.43 | 5.40 | 4.5 | 5.00 | 2.5 | 3.3 | 5.52
10 | CC(=O)OCC1OC(n2ccc(N3CCOC3=O)nc2=O)C(F)(F)C1OC(C)=O (stereo not drawn) [Derivative 16] |  |  |  |  |  |  |  |  |  |  |  | 2.7 | 5.21 | 5.38 | 3.8 | 4.60 | 1 | 3.4 | 5.30
11 | C#CCOC(=O)Nc1ccn(C2OC(COC(C)=O)C(OC(C)=O)C2(F)F)c(=O)n1 (stereo not drawn) [Derivative 18] |  |  |  |  |  |  |  |  |  |  |  | 6.5 | 6.05 | 6.21 | 12.7 | 5.18 | 3.1 | 10.8 | 6.14
12 | CC(=O)OCC1OC(n2ccc(NC(=O)OCC(C)c3ccccc3[N+](=O)[O-])nc2=O)C(F)(F)C1OC(C)=O (stereo not drawn) [Derivative 19] |  |  |  |  |  |  |  |  |  |  |  | 15 | 5.80 | 5.94 | 3.5 | 5.10 | 1.1 | 8 | 6.11
13 | COc1cc(COC(=O)Nc2ccn(C3OC(COC(C)=O)C(OC(C)=O)C3(F)F)c(=O)n2)c([N+](=O)[O-])cc1OC (stereo not drawn) [Derivative 20] |  |  |  |  |  |  |  |  |  |  |  | 7.5 | 6.21 | 6.24 | 17.54 | 5.41 | 4 | 4.6 | 6.22
14 | CC(=O)OCC1OC(n2ccc(NC(=O)OCC(C)C)nc2=O)C(F)(F)C1OC(C)=O (stereo not drawn) [Derivative 21] |  |  |  |  |  |  |  |  |  |  |  | 2.6 | 5.10 | 5.37 | 3.7 | 4.60 | 1 | 2.8 | 5.49
15 | CC(=O)Nc1ccn(C2OC(COC(C)=O)C(OC(C)=O)C2(F)F)c(=O)n1 (stereo not drawn) [Derivative 22] |  |  |  |  |  |  |  |  |  |  |  | 4 | 6.40 | 6.59 | 13.4 | 5.43 | 1.6 | 4.1 | 6.35
